Source: US11078222B2, “Hydroxybenzoic acid derivatives, methods and uses thereof” (UNiVERSIDADE DO PORTO, priority 2016, dated 2021)

Columns and labels:
[1] = Lipophilicity: transfer potential at ITIES (water/1,6-dichlorohexane) by DPV; format: physicochemical; settings: aqueous phase C=0.32 mM to 1,6-dichlorohexane, physiological pH
Protocol: In an embodiment, and as an example, the AntiOxBEN1 and AntiOxBEN2 lipophilic properties were evaluated using differential pulse voltammetry (DPV) at physiological pH. The used technique is often used to mimic the transfer of ionic drugs through biological membranes as the process occurs at the interface between two immiscible electrolyte solutions (ITIES). The transfer potential (Etr) at which the ionic drug, initially present in the aqueous phase (C=0.32 mM), is transferred to 1,6-dichlorohexane (DCH) phase is measured by differential pulse voltammetry (DPV). In the ITIES model, the transfer potential (Etr) becomes less positive with the increasing of the drug lipophilic character.
In an embodiment, the electrochemical analytical data was obtained using a computer controlled potentiostat Autolab PGSTAT302N (Metrohm Autolab, Utrecht, Netherlands). Generally, cyclic voltammetry (CV) data was acquired at a scan rate of 50 mVs^−1. Differential pulse voltammetry (DPV) results were acquired at a step potential of 4 mV, pulse amplitude of 50 mV and scan rate of 8 mVs^−1. The electrochemical signals were monitored by the General Purpose Electrochemical System (GPES) version 4.9, software package. […]

[2] = test system: mitochondrial permeability transition pore (mPTP); assay: Mitochondrial swelling / mitochondrial permeability transition pore opening; format: biochemical, rat; settings: 2.5, 5, 10 μM pre-incubated 5 min before Ca2+
Protocol: In an embodiment, and as an example, the effects of some AntiOxBENs on mitochondrial permeability transition pore (mPTP) opening were evaluated. In general, the tested AntiOxBENs had no effect per se on mPTP opening for all tested concentrations.
Increasing concentrations of AntiOxBENs (2.5-10 μM) were added to the reaction medium (200 mM sucrose, 1 mM KH2PO4, 10 mM Tris (pH 7.4), 5 mM succinate and 10 μM EGTA supplemented with 1.5 μM rotenone), in the presence of RLM (1 mg), and allowed to incubate for a 5 min period before the assay. The experiments were initiated by the addition of a suitable concentration of Ca^2+ (15-50 μM), titrated every day. […] The reaction was stirred continuously and the temperature maintained at 37° C.

## O=C(NCCCCCC[P+](c1ccccc1)(c1ccccc1)c1ccccc1)c1ccc(O)c(O)c1.[Br-] [AntiOxBEN1, 6-(3,4-dihydroxybenzamido)hexyltriphenylphosphonium bromide]
[1]
  transfer potential (Etr): 0.405 V

## O=C(NCCCCCC[P+](c1ccccc1)(c1ccccc1)c1ccccc1)c1cc(O)c(O)c(O)c1.[Br-] [AntiOxBEN2, 6-(3,4,5-trihydroxybenzamido)hexyltriphenylphosphonium bromide]
[1]
  transfer potential (Etr): 0.495 V

## O=C(CCCCC[P+](c1ccccc1)(c1ccccc1)c1ccccc1)NCCCCCCNC(=O)c1cc(O)c(O)c(O)c1.[Br-] [AntiOxBEN3, [5-(6-(3,4,5-trihydroxybenzamido)hexylamino)carbonylpentyl]triphenylphosphonium bromide]
[2]
  concentration-dependent inhibition of calcium-dependent mPTP opening: caused a concentration-dependent inhibition
